Reference: ChEMBL document CHEMBL3112450, “Synthesis and in vitro antitumor evaluation of primary amine substituted quinazoline linked benzimidazole” (Bioorg Med Chem Lett, 2014)

Experiments:
Format in all cases: functional
[1] = Cytotoxicity against human OVCAR5 cells assessed as growth inhibition at 10 uM after 48 hrs by SRB assay; details: OVCAR-5, 48 h, read-out: GI
NCI-H226 = assay: Cytotoxicity against human NCI-H226 cells assessed as growth inhibition at 10 uM after 48 hrs by SRB assay; details: NCI-H226, 48 h, read-out: GI
[2] = Cytotoxicity against human Hs578T cells assessed as growth inhibition at 10 uM after 48 hrs by SRB assay; details: Hs-578T, read-out: GI
DU-145 = assay: Cytotoxicity against human DU145 cells assessed as growth inhibition at 10 uM after 48 hrs by SRB assay; details: DU-145, 48 h, read-out: GI
CAKI-1 = assay: Cytotoxicity against human Caki1 cells assessed as growth inhibition at 10 uM after 48 hrs by SRB assay; details: CAKI-1, 48 h, read-out: GI
RXF 393 = assay: Cytotoxicity against human RXF393 cells assessed as growth inhibition at 10 uM after 48 hrs by SRB assay; details: RXF 393, 48 h, read-out: GI
ACHN = assay: Cytotoxicity against human ACHN cells assessed as growth inhibition at 10 uM after 48 hrs by SRB assay; details: read-out: GI
OVCAR-3 = assay: Cytotoxicity against human OVCAR3 cells assessed as growth inhibition at 10 uM after 48 hrs by SRB assay; details: OVCAR-3, 48 h, read-out: GI
IGROV-1 = assay: Cytotoxicity against human IGROV1 cells assessed as growth inhibition at 10 uM after 48 hrs by SRB assay; details: IGROV-1, 48 h, read-out: GI
UACC-62 = assay: Cytotoxicity against human UACC62 cells assessed as growth inhibition at 10 uM after 48 hrs by SRB assay; details: UACC-62, 48 h, read-out: GI
SK-MEL-28 = assay: Cytotoxicity against human SK-MEL-28 cells assessed as growth inhibition at 10 uM after 48 hrs by SRB assay; details: SK-MEL-28, 48 h, read-out: GI
M14 = assay: Cytotoxicity against human M14 cells assessed as growth inhibition at 10 uM after 48 hrs by SRB assay; details: M14, 48 h, read-out: GI
LOX IMVI = assay: Cytotoxicity against human LOXIMVI cells assessed as growth inhibition at 10 uM after 48 hrs by SRB assay; details: read-out: GI
U-251 = assay: Cytotoxicity against human U251 cells assessed as growth inhibition at 10 uM after 48 hrs by SRB assay; details: U-251, 48 h, read-out: GI
SNB-75 = assay: Cytotoxicity against human SNB75 cells assessed as growth inhibition at 10 uM after 48 hrs by SRB assay; details: SNB-75, 48 h, read-out: GI
SF-268 = assay: Cytotoxicity against human SF268 cells assessed as growth inhibition at 10 uM after 48 hrs by SRB assay; details: SF-268, 48 h, read-out: GI
NCI-H460 = assay: Cytotoxicity against human NCI-H460 cells assessed as growth inhibition at 10 uM after 48 hrs by SRB assay; details: NCI-H460, 48 h, read-out: GI
A549 = assay: Cytotoxicity against human A549 cells assessed as growth inhibition at 10 uM after 48 hrs by SRB assay; details: A549, 48 h, read-out: GI
MOLT-4 = assay: Cytotoxicity against human MOLT4 cells assessed as growth inhibition at 10 uM after 48 hrs by SRB assay; details: MOLT-4, 48 h, read-out: GI

In the case of `C=CCn1c(C)nc2ccc(Nc3nc(Nc4ccc5nc(C)n(CC=C)c5c4)c4ccccc4n3)cc21`, the inhibition of growth at 10 µM [1] is reported as 70% and the inhibition of growth at 10 µM (NCI-H226) is reported as 30%.
`C=CCn1c(C)nc2ccc(Nc3nc(Nc4ccc(F)cc4)nc4ccccc34)cc21` showed an inhibition of growth at 10 µM [2] of 40%, an inhibition of growth at 10 µM (DU-145) of 30% and an inhibition of growth at 10 µM (CAKI-1) of 40%. It also gave an inhibition of growth at 10 µM (RXF 393) of 30%, an inhibition of growth at 10 µM (ACHN) of 30% and an inhibition of growth at 10 µM (OVCAR-3) of 40%. For the same compound, the inhibition of growth at 10 µM (IGROV-1) was 40%, the inhibition of growth at 10 µM (UACC-62) was 30% and the inhibition of growth at 10 µM (SK-MEL-28) was 30%. It also gave an inhibition of growth at 10 µM (M14) of 50%, an inhibition of growth at 10 µM (LOX IMVI) of 50% and an inhibition of growth at 10 µM (U-251) of 40%. The inhibition of growth at 10 µM (SNB-75) was 40%, the inhibition of growth at 10 µM (SF-268) was 30% and the inhibition of growth at 10 µM (NCI-H460) was 30%. For the same compound, the inhibition of growth at 10 µM (A549) was 40%.
In the case of `C=CCn1c(C)nc2cc(Nc3nc(NCCO)nc4ccccc34)ccc21`, the inhibition of growth at 10 µM (MOLT-4) is reported as 40%.
